In US4439426A, “Semisynthetic macrolidic antibiotics, intermediate compounds for their preparation and related pharmaceutical compositions containing them” (priority 1981, dated 1984):
Converted amounts (≈) assume the structure as drawn.

How the values were obtained:
[1] = Stability in acidic environment at 25° C. (half-life of initial microbiological activity); assay type: physicochemical; settings: aqueous solution
Experimental: Stability in acidic environnment at 25° C. of the novel
Note: t 1/2 represents the time for reducing to one half the initial powe
of the antibiotic determined by microbiological method through diffusion
on a plate using the test stock Microccocus luteus (Sarcina lutea) ATCC

[2] = system: Streptococcus pneumoniae ATCC 6303 LRP 35; experiment: Bacteriostatic power in liquid medium (MIC); assay type: cell-based; settings: Streptococcus pneumoniae, ATCC6303; liquid medium; read-out: Minimum inhibiting concentration
Outline: (§1)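 Growth inhibition endpoint, expressed as MIC, on Gram-negative and Gram-positive stocks grown aerobically or anaerobically.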

[3] = system: Streptococcus faecalis subs. zymogenes ATCC 12958 LRP 61; experiment: Bacteriostatic power in liquid medium (MIC); assay type: cell-based; settings: Enterococcus faecalis, ATCC12958; liquid medium; read-out: Minimum inhibiting concentration
Outline: as §1

[4] = system: Staphylococcus aureus ATCC 6538 P LRP 39; experiment: Bacteriostatic power in liquid medium (MIC); assay type: cell-based; settings: Staphylococcus aureus, ATCC6538; liquid medium; read-out: Minimum inhibiting concentration
Outline: as §1

[5] = system: Corynebacterium diphteriae LRP 24; experiment: Bacteriostatic power in liquid medium (MIC); assay type: cell-based; settings: Corynebacterium, LRP24; liquid medium; read-out: Minimum inhibiting concentration
Outline: as §1

[6] = system: Streptococcus pyogenes ATCC 8668 LRP 34; experiment: Bacteriostatic power in liquid medium (MIC); assay type: cell-based; settings: Streptococcus pyogenes, ATCC8668; liquid medium; read-out: Minimum inhibiting concentration
Outline: as §1

Bacillus subtilis LRP 25 = experiment: Bacteriostatic power in solid medium (MIC); assay type: cell-based; settings: Bacillus subtilis, LRP25; solid medium; read-out: Minimum inhibiting concentration
Outline: as §1

[7] = system: Staphylococcus aureus ATCC 14154 LRP 78; experiment: Bacteriostatic power in solid medium (MIC); assay type: cell-based; settings: Staphylococcus aureus, ATCC14154; solid medium; Erythromycin resistant; read-out: Minimum inhibiting concentration
Outline: as §1

Shigella sonnei LRP 5 = experiment: Bacteriostatic power in solid medium (MIC); assay type: cell-based; settings: LRP5, read-out: Minimum inhibiting concentration
Outline: as §1

[8] = system: Fusobacteriumnecrophroum ATCC 27852 LRP 210; experiment: Bacteriostatic power in solid medium (MIC); assay type: cell-based; settings: read-out: Minimum inhibiting concentration
Outline: as §1

[9] = system: Neisseria gonorrhoeae ATCC 19424 LRP 214; experiment: Bacteriostatic power in solid medium (MIC); assay type: cell-based; settings: Neisseria gonorrhoeae, ATCC19424; solid medium; read-out: Minimum inhibiting concentration
Outline: as §1

[10] = system: Klelsiella pneumoniae LRP 54; experiment: Bacteriostatic power in solid medium (MIC); assay type: cell-based; settings: solid medium; read-out: Minimum inhibiting concentration
Outline: as §1

[11] = system: Streptococcus pneumoniae ATCC 6303 LRP 35; experiment: Bacteriostatic power in solid medium (MIC); assay type: cell-based; settings: Streptococcus pneumoniae, ATCC6303; solid medium; read-out: Minimum inhibiting concentration
Outline: as §1

[12] = system: Staphylococcus aureus ATCC 6538P LRP 39; experiment: Bacteriostatic power in solid medium (MIC); assay type: cell-based; settings: Staphylococcus aureus, ATCC6538P; solid medium; read-out: Minimum inhibiting concentration
Outline: as §1

[13] = system: Micrococcus luteus ATCC 9341 LRP 6; experiment: Bacteriostatic power in solid medium (MIC); assay type: cell-based; settings: Micrococcus luteus, ATCC9341; solid medium; read-out: Minimum inhibiting concentration
Outline: as §1

[14] = system: Staphylococcus aureus ATCC 6538P LRP 14; experiment: Bacteriostatic power in solid medium (MIC); assay type: cell-based; settings: Staphylococcus aureus, ATCC6538P; solid medium; Penycilline resistant; read-out: Minimum inhibiting concentration
Outline: as §1

[15] = system: Mycoplasma hominis I ATCC 14027 LRP 211; experiment: Bacteriostatic power in solid medium (MIC); assay type: cell-based; settings: Metamycoplasma hominis, ATCC14027; solid medium; read-out: Minimum inhibiting concentration
Outline: as §1

[16] = system: Streptococcus pyogenes ATCC 8668 LRP 197; experiment: Bacteriostatic power in solid medium (MIC); assay type: cell-based; settings: Streptococcus pyogenes, ATCC8668; solid medium; read-out: Minimum inhibiting concentration
Outline: as §1

[17] = system: Haemophilus influenzae ATCC 19418 LRP 213; experiment: Bacteriostatic power in solid medium (MIC); assay type: cell-based; settings: Haemophilus influenzae, ATCC19418, read-out: Minimum inhibiting concentration
Outline: as §1

[18] = system: Streptococcus pneumoniae ATCC 6303 LRP 52; experiment: Bacteriostatic power in solid medium (MIC); assay type: cell-based; settings: Streptococcus pneumoniae, ATCC6303; solid medium; read-out: Minimum inhibiting concentration
Outline: as §1

[19] = system: Proteus vulgaris ATCC 6380 LRP 13; experiment: Bacteriostatic power in solid medium (MIC); assay type: cell-based; settings: Proteus vulgaris, ATCC6380; solid medium; read-out: Minimum inhibiting concentration
Outline: as §1

[20] = system: Acholeplasma laidlawii ATCC 23206 LRP 204; experiment: Bacteriostatic power in solid medium (MIC); assay type: cell-based; settings: Acholeplasma laidlawii, ATCC23206; solid medium; read-out: Minimum inhibiting concentration
Outline: as §1

[21] = system: Streptococcus faecalis LRP 7; experiment: Bacteriostatic power in solid medium (MIC); assay type: cell-based; settings: Enterococcus faecalis, LRP7; solid medium; read-out: Minimum inhibiting concentration
Outline: as §1

[22] = system: Corynebacterium diphteriae LRP 24; experiment: Bacteriostatic power in solid medium (MIC); assay type: cell-based; settings: Corynebacterium, LRP24; solid medium; read-out: Minimum inhibiting concentration
Outline: as §1

[23] = system: Streptococcus pyogenes ATCC 8668 LRP 34; experiment: Bacteriostatic power in solid medium (MIC); assay type: cell-based; settings: Streptococcus pyogenes, ATCC8668; solid medium; read-out: Minimum inhibiting concentration
Outline: as §1

[24] = system: Bacteroides fragilis ATCC 23745 LRP 205; experiment: Bacteriostatic power in solid medium (MIC); assay type: cell-based; settings: Bacteroides fragilis, ATCC23745; solid medium; anaerobic; read-out: Minimum inhibiting concentration
Outline: as §1

[25] = system: Streptococcus pneumoniae ATCC 6303 LRP 53; experiment: Bacteriostatic power in solid medium (MIC); assay type: cell-based; settings: Streptococcus pneumoniae, ATCC6303; solid medium; read-out: Minimum inhibiting concentration
Outline: as §1

[26] = system: Pseudomonas aeruginosa LRP 9; experiment: Bacteriostatic power in solid medium (MIC); assay type: cell-based; settings: Pseudomonas aeruginosa, LRP9; solid medium; read-out: Minimum inhibiting concentration
Outline: as §1

[27] = system: Micrococcus luteus ATCC 15957 LRP 193; experiment: Bacteriostatic power in solid medium (MIC); assay type: cell-based; settings: Micrococcus luteus, ATCC15957; solid medium; Erythromycin resistant; read-out: Minimum inhibiting concentration
Outline: as §1

Escherichia coli LRP 50 = experiment: Bacteriostatic power in solid medium (MIC); assay type: cell-based; settings: Escherichia coli, LRP50, read-out: Minimum inhibiting concentration
Outline: as §1

[28] = system: Streptococcus faecalis subsp. zymogenes ATCC 12958 LRP 61; experiment: Bacteriostatic power in solid medium (MIC); assay type: cell-based; settings: Enterococcus faecalis, ATCC12958; solid medium; read-out: Minimum inhibiting concentration
Outline: as §1

[29] = system: Streptococcus faecalis subs. zymogenes LRP 61; experiment: Minimum bactericidal concentration (MBC); assay type: cell-based
From the text: (§2) the bacterial power, expressed as the minimum bactericidal power (MBC) against some Gram positive aerobic stocks (table 5).

[30] = system: Streptococcus pneumoniae ATCC 6303 LRP 35; experiment: Minimum bactericidal concentration (MBC); assay type: cell-based
From the text: as §2

[31] = system: Staphylococcus aureus ATCC 6538 P LRP 39; experiment: Minimum bactericidal concentration (MBC); assay type: cell-based
From the text: as §2

[32] = system: Corynebacterium diphteriae LRP 24; experiment: Minimum bactericidal concentration (MBC); assay type: cell-based
From the text: as §2

[33] = system: Streptococcus pyogenes ATCC 8668 LRP 34; experiment: Minimum bactericidal concentration (MBC); assay type: cell-based
From the text: as §2

[34] = system: Clostridium perfrigens ATCC 3624 LRP 206; experiment: microbe, parasite or virus in culture; assay type: cell-based; settings: ATCC3624, solid medium, anaerobic, read-out: Minimum inhibiting concentration
Outline: as §1

Salmonella typhy LRP 8 = experiment: microbe, parasite or virus in culture; assay type: cell-based; settings: LRP8, solid medium, read-out: Minimum inhibiting concentration
Outline: as §1

CC[C@H]1OC(=O)[C@H](C)[C@@H](O[C@H]2C[C@@](C)(O)[C@@H](O)[C@H](C)O2)[C@H](C)[C@@H](O[C@@H]2O[C@H](C)C[C@H](N(C)C)[C@H]2O)[C@](C)(O)C[C@](C)(F)C(=O)[C@H](C)[C@@H](O)[C@]1(C)O [P-80205, (8S)-8-fluoroerythromycin C]
half-life ([1]; pH 2): 1.65 h
half-life ([1]; pH 3): 41.5 h
MIC [2]: 0.097 µg/mL (≈ 0.131 µM)
MIC [3]: 0.39 µg/mL (≈ 0.529 µM)
MIC [4]: 0.195 µg/mL (≈ 0.264 µM)
MIC [5]: 0.049 µg/mL (≈ 0.0664 µM)
MIC [6]: 0.049 µg/mL (≈ 0.0664 µM)
MIC (Bacillus subtilis LRP 25): 0.097 µg/mL (≈ 0.131 µM)
MIC [7]: 25 µg/mL (≈ 33.9 µM)
MIC (Shigella sonnei LRP 5): 25 µg/mL (≈ 33.9 µM)
MIC [8]: 12.5 µg/mL (≈ 16.9 µM)
MIC [9]: 0.195 µg/mL (≈ 0.264 µM)
MIC [10]: 25 µg/mL (≈ 33.9 µM)
MIC [11]: 0.024 µg/mL (≈ 0.0325 µM)
MIC [12]: 0.097 µg/mL (≈ 0.131 µM)
MIC [13]: 0.012 µg/mL (≈ 0.0163 µM)
MIC [14]: 0.097 µg/mL (≈ 0.131 µM)
MIC [15]: 25 µg/mL (≈ 33.9 µM)
MIC [16]: 0.024 µg/mL (≈ 0.0325 µM)
MIC [17]: 12.5 µg/mL (≈ 16.9 µM)
MIC [18]: 0.012 µg/mL (≈ 0.0163 µM)
MIC [19]: 25 µg/mL (≈ 33.9 µM)
MIC [20]: 3.12 µg/mL (≈ 4.23 µM)
MIC [21]: 0.097 µg/mL (≈ 0.131 µM)
MIC [22]: 0.012 µg/mL (≈ 0.0163 µM)
MIC [23]: 0.024 µg/mL (≈ 0.0325 µM)
MIC [24]: 0.78 µg/mL (≈ 1.06 µM)
MIC [25]: 0.024 µg/mL (≈ 0.0325 µM)
MIC [26]: 25 µg/mL (≈ 33.9 µM)
MIC [27]: 25 µg/mL (≈ 33.9 µM)
MIC (Escherichia coli LRP 50): 12.5 µg/mL (≈ 16.9 µM)
MIC [28]: 0.097 µg/mL (≈ 0.131 µM)
MBC/MIC [29]: > 8
MBC ([29]; Enterococcus faecalis, read-out: Minimum bactericidal concentration (MBC)): > 3.12 µg/mL
MBC/MIC [30]: 2
MBC ([30]; Streptococcus pneumoniae, ATCC6303, read-out: Minimum bactericidal concentration (MBC)): 0.195 µg/mL (≈ 0.264 µM)
MBC/MIC [31]: 16
MBC ([31]; Staphylococcus aureus, ATCC6538, read-out: Minimum bactericidal concentration (MBC)): 3.12 µg/mL (≈ 4.23 µM)
MBC/MIC [32]: 8
MBC ([32]; Corynebacterium, LRP24, read-out: Minimum bactericidal concentration (MBC)): 0.39 µg/mL (≈ 0.529 µM)
MBC/MIC [33]: 16
MBC ([33]; Streptococcus pyogenes, ATCC8668, read-out: Minimum bactericidal concentration (MBC)): 0.78 µg/mL (≈ 1.06 µM)
MIC [34]: 6.25 µg/mL (≈ 8.47 µM)
MIC (Salmonella typhy LRP 8): 12.5 µg/mL (≈ 16.9 µM)
